In US10525055B2, “Opioid receptor antagonist prodrugs” (Nirsum Laboratories, Inc., priority 2017, dated 2020):

Legend:
[1] = Dog pharmacokinetic studies, deep intramuscular; type: in vivo, Beagle dogs; details: dog IM, 48 mg/kg, Sesame oil + 1% Benzyl Alcohol
Description: The purpose of this study is to determine the pharmacokinetics of test compounds in plasma, following deep intramuscular administration to Beagle dogs (n=3, unless otherwise specified).
(§1) The dose formulation (concentration−400 mg base equivalents/ml in sesame oil+1% benzyl alcohol, unless otherwise specified) was administered via deep intramuscularly (unless otherwise specified). The injection vehicle was also dosed via deep intramuscular route (unless otherwise specified) on contralateral site of each animal at study initiation. The animals were sedated with Propofol at 6 mg/kg via IV administration. Following sedation hair was carefully removed from around the injection site and the area gently cleaned. Care will be taken to avoid irritating skin during shaving and cleaning the injection site. Then dogs will be dosed with deep IM administration. At least 2.5 cm depth from the surface into the central aspect of the quadriceps or biceps femoris muscle, by angling the needle toward the femur. If the needle hits the femur, simply draws back slightly and then inject. The dose volume will be determined by the animals' body weight collected on the morning of dosing day. For repeated administration, the injection sites may be rotated to minimize tissue injury.
Blood samples were collected from a peripheral vessel from restrained, non-sedated animals per sampling time point.
Approximately 0.8 mL blood will be collected at each time point.
(§2) Each collected blood sample was centrifuged for 4 minutes at 4° C. and 10000 rpm for plasma collection. Plasma was collected and transferred into a pre-labeled PP tube in dry ice at each time point and precipitated immediately using ACN at a ratio of 1:4 (plasma:ACN). Centrifuged again (10 minutes, 12000 rpm) and obtain the supernatant.
After terminal collection, all supernatant was stored at approximately −80° C. F until bioanalysis.
(§3) LC-MS/MS methods for the quantitative determination of test compound in biological matrix were developed. […] The sample analysis was performed concurrently with a set of calibration standards and two sets of QC samples using the LC-MS/MS method.
(§4) Plasma concentration versus time data was analyzed by non-compartmental approaches using the Phoenix WinNonlin 6.3 software program. Cmax, Tmax, T1/2, AUC(0-t), AUC(0-inf), MRT(0-t), MRT(0-inf) and graphs of plasma concentration versus time profile were prepared.

[2] = Solubility determination in oil (cottonseed oil, sesame oil); details: heating temp. 60 °C, obs. temp. 25 °C
Description: A known amount of test substance (˜40 mg) was weighed into the vial, 100 μL of oil was added and heated to 60° C. and then system was slurried to reach equilibrium. […] Extra oil was added into the vial once compound precipitated out and then the system was re-equilibrated at 1000 rpm at room temperature (25° C.). Final concentration was determined by HPLC method as described below in Table 6a and 6b.

[3] = Plasma stability assay, rat plasma; type: in vitro ADME; details: 37° C., 10 μM
Description: Plasma stability determination of the test compounds in rat, dog, cynomolgus monkey and human plasma is performed using HPLC-MS. For rat, incubations are carried out in 96-well polypropylene plates in 5 aliquots of 70 μL each (one for each time point). […] Five time points are analyzed (0, 15, 120, 480 and 1440 min). For dog, monkey and human, test compounds (2 μM, final solvent concentration 1%) were also incubated at 37° C. and analyzed at five time points (0, 10, 30, 60 and 120 min). All incubations are performed in duplicates. The samples are analyzed by HPLC-MS. The percentage of parent compound remaining after incubation in plasma is determined.

[4] = Dog clinical observations after intramuscular dosing; type: in vivo, Beagle dogs; details: dog D1502, compound 18 at 48 mg/kg; earlier weight, reported at 96 hr
Description: Weight monitoring was done every week.
as §1

[5] = Rat pharmacokinetic studies, intramuscular; type: in vivo, male Sprague Dawley Rats; details: for Mean conc Nalmefene: rat plasma, IM, 86 mg/ml at 17 mg/kg
Description: The purpose of this study is to determine the pharmacokinetics of test compounds in plasma, following intramuscular administration to male Sprague Dawley Rats (n=3, unless otherwise specified).
The dose formulation of 400 mg base equivalents/ml in sesame oil+1% benzyl alcohol (unless otherwise specified) was administered by intramuscular injection. The dose volume was determined by the animals' body weight determined on the morning of dosing day.
as §2
After terminal collection, all supernatant was stored at approximately −80° C. until bioanalysis.
as §3, §4

[6] = rat IM, 17 mg/kg, Sesame oil + 1% Benzyl Alcohol

Row | Structure (SMILES) | Approximate Solubility (mg/mL) in Excipient: Sesame oil [2] | % remaining at time point in minutes, 0 min [3] | % remaining at time point in minutes, 15 min [3] | % remaining at time point in minutes, 120 min [3] | % remaining at time point in minutes, 480 min [3] | % remaining at time point in minutes, 1440 min [3] | other results
1 | C=C1CC[C@@]2(O)C3Cc4ccc(OCOC(=O)OCCCCCCCC/C=C/CCCCCCCC)c5c4[C@@]2(CCN3CC2CC2)[C@H]1O5 [Compound 1, (((4aS,7aS,12bS)-3-(cyclopropylmethyl)-4a-hydroxy-7-methylene-2,3,4,4a,5,6,7,7a-octahydro-1H-4,12-methanobenzofuro[3,2-e]isoquinolin-9-yl)oxy)methyl ((E)-octadec-9-en-1-yl) carbonate] |  |  |  |  |  |  | AUC0-inf (ng · h/mL) prodrug [1]: 1.04 µg·h/mL; Half-life t1/2 (hour) prodrug [1]: 261 h
2 | CCCCCCCC/C=C/CCCCCCCCOC(=O)OCOc1ccc2c3c1O[C@H]1C(=O)CC[C@@]4(O)C(C2)N(CC2CC2)CC[C@]314 [Compound 7, (((4aS,7aR,12bS)-3-(cyclopropylmethyl)-4a-hydroxy-7-oxo-2,3,4,4a,5,6,7,7a-octahydro-1H-4,12-methanobenzofuro[3,2-e]isoquinolin-9-yl)oxy)methyl ((E)-octadec-9-en-1-yl) carbonate] |  |  |  |  |  |  | AUC0-inf (ng · h/mL) prodrug [1]: 0.61 µg·h/mL
3 | C=C1CC[C@@]2(O)C3Cc4ccc(OC(=O)OCCCCCCCCCC)c5c4[C@@]2(CCN3CC2CC2)[C@H]1O5 [Compound 18, (4aS,7aS,12bS)-3-(cyclopropylmethyl)-4a-hydroxy-7-methylene-2,3,4,4a,5,6,7,7a-octahydro-1H-4,12-methanobenzofuro[3,2-e]isoquinolin-9-yl decyl carbonate] | >402 mg/mL | 100% | 0.6% | 0.3% | 0.1% | 0% | Approximate Solubility (mg/mL) in Excipient: Cottonseed oil ([2]; Cottonseed oil): >400 mg/mL; weight decreases from (earlier weight), D1502 [4]: 7.76 kg
4 | CCCCCCCCCCCCOC(=O)OCOc1ccc2c3c1O[C@H]1C(=O)CC[C@@]4(O)C(C2)N(CC2CC2)CC[C@]314 [Compound 29, (((4aS,7aR,12bS)-3-(cyclopropylmethyl)-4a-hydroxy-7-oxo-2,3,4,4a,5,6,7,7a-octahydro-1H-4,12-methanobenzofuro[3,2-e]isoquinolin-9-yl)oxy)methyl dodecyl carbonate] | >416.5 mg/mL |  |  |  |  |  | AUC0-inf (ng · h/mL) prodrug ([5]; rat IM, 165 mg/kg, Sesame oil + 1% Benzyl Alcohol): 0.0748 µg·h/mL
5 | CCCCCCCCCCCCCCCCCC(=O)Oc1ccc2c3c1O[C@H]1C(=O)CC[C@@]4(O)C(C2)N(CC2CC2)CC[C@]314 [Compound 54, (4aS,7aR,12bS)-3-(cyclopropylmethyl)-4a-hydroxy-7-oxo-2,3,4,4a,5,6,7,7a-octahydro-1H-4,12-methanobenzofuro[3,2-e]isoquinolin-9-yl stearate] | <50 mg/mL | 100% | 98.8% | 62.4% | 45.6% | 19.4% | 
6 | CCCCCCCCCCCCCC(=O)Oc1ccc2c3c1O[C@H]1C(=O)CC[C@@]4(O)C(C2)N(CC2CC2)CC[C@]314 [Compound 57, (4aS,7aR,12bS)-3-(cyclopropylmethyl)-4a-hydroxy-7-oxo-2,3,4,4a,5,6,7,7a-octahydro-1H-4,12-methanobenzofuro[3,2-e]isoquinolin-9-yl tetradecanoate] | >417.3 mg/mL | 100% | 10.5% | 3.2% | 1.2% | 0% | 
7 | CCCCCCCCCCCCCCC(=O)Oc1ccc2c3c1O[C@H]1C(=O)CC[C@@]4(O)C(C2)N(CC2CC2)CC[C@]314 [Compound 58, (4aS,7aR,12bS)-3-(cyclopropylmethyl)-4a-hydroxy-7-oxo-2,3,4,4a,5,6,7,7a-octahydro-1H-4,12-methanobenzofuro[3,2-e]isoquinolin-9-yl pentadecanoate] | 99.4 to 198.8 mg/mL | 100% | 37% | 20% | 2.9% | 1.8% | 
8 | C=C1CC[C@@]2(O)C3Cc4ccc(OC(=O)CCCCCCCCCCC)c5c4[C@@]2(CCN3CC2CC2)[C@H]1O5 [Compound 59, (4aS,7aS,12bS)-3-(cyclopropylmethyl)-4a-hydroxy-7-methylene-2,3,4,4a,5,6,7,7a-octahydro-1H-4,12-methanobenzofuro(3,2-c]isoquinolin-9-yl dodecanoate, reference compound] |  | 100% | 5.9% | 0.7% | 0.2% | 0% | AUC0-inf (ng · h/mL) nalmefene [5, 6]: 1.026 µg·h/mL; AUC0-inf (ng · h/mL) prodrug [5, 6]: 0.0104 µg·h/mL; Half-life t1/2 (hour) prodrug [5, 6]: 15.2 h; Terminal Half-life t1/2 (hour) nalmefene [5, 6]: 248 h; Mean conc Nalmefene ([5]; 1.00 h): 7.85 ng/mL; Mean conc Nalmefene ([5]; 2.00 h): 8.10 ng/mL; Mean conc Nalmefene ([5]; 4.00 h): 7.45 ng/mL; Mean conc Nalmefene ([5]; 8.00 h): 6.85 ng/mL; Mean conc Nalmefene ([5]; 24.0 h): 6.96 ng/mL; Mean conc Nalmefene ([5]; 48.0 h): 7.92 ng/mL; Mean conc Nalmefene ([5]; 72.0 h): 5.77 ng/mL; Mean conc Nalmefene ([5]; 144 h): 1.59 ng/mL; Mean conc Nalmefene ([5]; 312 h): 0.403 ng/mL; Mean conc Nalmefene ([5]; 480 h): 0.235 ng/mL; Mean conc Nalmefene ([5]; 648 h): 0.145 ng/mL
9 | C=C1CC[C@@]2(O)[C@H]3Cc4ccc(O)c5c4[C@@]2(CCN3CC2CC2)[C@H]1O5.Cl [Nalmefene HCl-IR] |  |  |  |  |  |  | AUC0-inf (ng · h/mL) nalmefene ([5]; rat, 0.80 mg/kg, saline): 0.066 µg·h/mL; Terminal Half-life t1/2 (hour) nalmefene ([5]; rat, 0.80 mg/kg, saline): 0.87 h
